The values that follow are results of earlier work, collected in patent US20170002035A1, “NOVEL CRYSTALLINE FORMS OF AN ANTIVIRAL BENZIMIDAZOLE COMPOUND” (GlaxoSmithKline LLC, priority 1998, published 2017).

For this data set the following is noted: amorphous material as disclosed in WO96/01833.

Each structure is given as a SMILES string.

In the case of `CC(C)Nc1nc2cc(Cl)c(Cl)cc2n1[C@H]1O[C@@H](CO)[C@H](O)[C@@H]1O` [Form 1263W94, 5,6-dichloro-2-(isopropylamino)-1-(β-L-ribofuranosyl)-1H-benzimidazole], the hygroscopicity entry was “hygroscopic”.
